From patent US20020031795A1, “Nitrocoumarins for detecting all micro-organisms” (priority 1998, published 2002) come the findings set out here.

Assay [1] concerns Escherichia coli (NCTC 10418). The assay is described as follows: Growth of E. coli in Mueller-Hinton broth in the presence of nitrocoumarins (optical density 690 nm). The class given is cell-based. The note with it: 0.105 mmol/l. As to the method:
(§1) A sample of the 7-nitrocoumarin derivative is dissolved in 4 ml of hot, distilled water. The mass dissolved to make the stock solution is such that the final concentration of the compound in the assay is 0.105 mmol/l. This solution is added to 96 ml of Mueller-Hinton broth and the mixture is sterile-filtered.
(§2) The E. coli was grown for 24 hours at 35° C. on Columbia agar supplemented with sheep blood. The bacteria were then resuspended in sterile, distilled water and their density was adjusted to 0.5 on the MacFarland scale (i.e. about 10^8 cells/ml). This suspension was then diluted 100-fold in sterile Mueller-Hinton broth (i.e. to a final density of about 10^6 cells/ml).
(§3) Fifty microliters of each nitrocoumarin solution plus 50 μl of bacterial suspension were then added to the wells of a microtiter plate. The plates were incubated at 35° C. and the optical density and fluorescence of each well was read every 30 min for a total of 4 hours. Optical density (690 nm) readings were made using an Anthos 2001 spectrophotometer (Labtech International Limited), and fluorescence (excitation at 365 nm and emission at 440 nm) readings were made on a Biolite F1 2001 fluorometer (Labtech International Limited).
(§4) The effect of the concentration of 7-nitrocoumarin-3-carboxylic acid on the sensitivity of the assay to detect E. coli (NCTC strain 10418) was investigated at concentrations of the indicator ranging from 0 to 0.262 mmol/l. All other conditions were identical to those described in section A above.

Assay [2] deals with E. coli (NCTC strain 10418). The assay is described as follows: Fluorescent signal generated by E. coli reducing nitrocoumarins (nitroaryl reductase activity). The assay is classed as cell-based, Escherichia coli. Conditions: 0.105 mmol/l; for Extent of reduction of the substrate (in words): end of the four-hour assay. The method, then: as §1, §2, §3, §4

Consider `CC(=O)c1c(C)c2ccc([N+](=O)[O-])cc2oc1=O` [3-acetyl-4-methyl-7-nitrocoumarin], for which the “Optical density (690 nm)” value is recorded as 0.000 in assay [1] (0 min); −0.003 in assay [1] (30 min); −0.002 in assay [1] (60 min); −0.001 in assay [1] (90 min); 0.002 in assay [1] (120 min); 0.008 in assay [1] (150 min). Further, the figures for the “Optical density (690 nm)” value in assay [1] (180 min), in assay [1] (210 min) and in assay [1] (240 min) were 0.023, 0.051 and 0.110, respectively. For the same compound, the Fluorescent signal amounted to 0 in assay [2] (0 min); 40 in assay [2] (30 min); 390 in assay [2] (60 min); 992 in assay [2] (90 min); 1804 in assay [2] (120 min); 2811 in assay [2] (150 min). Besides, the results for the Fluorescent signal in assay [2] (180 min), in assay [2] (210 min) and in assay [2] (240 min) were 4090, 5576 and 8017, respectively.
Take `CCCC(=O)c1cc2ccc([N+](=O)[O-])cc2oc1=O` [3-butyryl-7-nitrocoumarin]: in assay [1], the “Inhibitory effect on the growth of E. coli (in words)” value was “most powerful inhibitors”. Moreover, the “Optical density (690 nm)” value in assay [1] (0 min) was 0.000; in assay [1] (30 min), 0.001; in assay [1] (60 min), 0.005; in assay [1] (90 min), 0.007; in assay [1] (120 min), 0.009; in assay [1] (150 min), 0.012. The “Optical density (690 nm)” value in assay [1] (180 min) is on record as 0.015; in assay [1] (210 min), 0.039; in assay [1] (240 min), 0.096. Moreover, the Fluorescent signal in assay [2] (0 min) is on record as 0; in assay [2] (30 min), 64; in assay [2] (60 min), 387; in assay [2] (90 min), 894; in assay [2] (120 min), 1538; in assay [2] (150 min) it was 2344. The Fluorescent signal in assay [2] (180 min) amounted to 3329; in assay [2] (210 min), 4642; in assay [2] (240 min), 6845. Further, in assay [2], the “Extent of reduction of the substrate (in words)” value is “least reduced”.
Consider `Cc1cc(=O)oc2cc([N+](=O)[O-])ccc12` [4-methyl-7-nitrocoumarin], for which the “Optical density (690 nm)” value in assay [1] (0 min) worked out at 0.000; in assay [1] (30 min), 0.000; in assay [1] (60 min), 0.002; in assay [1] (90 min), 0.004; in assay [1] (120 min), 0.010; in assay [1] (150 min) it was 0.024. In addition, the figures for the “Optical density (690 nm)” value in assay [1] (180 min), in assay [1] (210 min) and in assay [1] (240 min) were 0.055, 0.113 and 0.175, respectively. In addition, the Fluorescent signal is reported as 0 in assay [2] (0 min); 15 in assay [2] (30 min); 302 in assay [2] (60 min); 974 in assay [2] (90 min); 2008 in assay [2] (120 min); 3299 in assay [2] (150 min). For the same compound, the figures for the Fluorescent signal in assay [2] (180 min), in assay [2] (210 min) and in assay [2] (240 min) were 5097, 7545 and 11125, respectively.
Take `O=C(c1cc2ccc([N+](=O)[O-])cc2oc1=O)N1CCOCC1` [7-nitrocoumarin-3-carboxymorpholide]: the “Optical density (690 nm)” value is listed as 0.000 in assay [1] (0 min); −0.002 in assay [1] (30 min); −0.001 in assay [1] (60 min); 0.001 in assay [1] (90 min); 0.005 in assay [1] (120 min); 0.014 in assay [1] (150 min). Besides, the “Optical density (690 nm)” value is reported as 0.037 in assay [1] (180 min), 0.068 in assay [1] (210 min) and 0.109 in assay [1] (240 min). For the same compound, the Fluorescent signal in assay [2] (0 min) came out at 0; in assay [2] (30 min), 180; in assay [2] (60 min), 665; in assay [2] (90 min), 1376; in assay [2] (120 min) it was 2414; in assay [2] (150 min) it was 3796. Besides, the results for the Fluorescent signal in assay [2] (180 min), in assay [2] (210 min) and in assay [2] (240 min) were 5817, 8454 and 12263, respectively.
Take `O=c1ccc2ccc([N+](=O)[O-])cc2o1` [7-nitrocoumarin]: the “Optical density (690 nm)” value in assay [1] (0 min) was 0.000; in assay [1] (30 min), −0.002; in assay [1] (60 min), 0.000; in assay [1] (90 min), 0.002; in assay [1] (120 min) it was 0.009; in assay [1] (150 min) it was 0.025. Besides, the “Optical density (690 nm)” value in assay [1] (180 min) is given as 0.072; in assay [1] (210 min), 0.133; in assay [1] (240 min) it was 0.211. The Fluorescent signal in assay [2] (0 min) is reported as 0; in assay [2] (30 min), 77; in assay [2] (60 min) it was 519; in assay [2] (90 min), 1447; in assay [2] (120 min), 2915; in assay [2] (150 min), 4713. Also, the values for the Fluorescent signal in assay [2] (180 min), in assay [2] (210 min) and in assay [2] (240 min) were 7160, 10182 and 14189, respectively.
Regarding `CCOC(=O)c1cc2ccc([N+](=O)[O-])cc2oc1=O` [ethyl-7-nitrocoumarin-3-carboxylate], the “Optical density (690 nm)” value in assay [1] (0 min) was 0.000; in assay [1] (30 min), −0.005; in assay [1] (60 min), −0.008; in assay [1] (90 min), −0.008; in assay [1] (120 min) it was −0.006; in assay [1] (150 min), 0.000. The “Optical density (690 nm)” value in assay [1] (180 min) came out at 0.018; in assay [1] (210 min), 0.046; in assay [1] (240 min), 0.116. Also, the Fluorescent signal is 0 in assay [2] (0 min); 173 in assay [2] (30 min); 814 in assay [2] (60 min); 1703 in assay [2] (90 min); 2813 in assay [2] (120 min); 4126 in assay [2] (150 min). Also, the Fluorescent signal in assay [2] (180 min) was 5646; in assay [2] (210 min) it was 7370; in assay [2] (240 min) it was 10859.
For the compound `COC(=O)c1cc2ccc([N+](=O)[O-])cc2oc1=O` [methyl-7-nitrocoumarin-3-carboxylate], the “Inhibitory effect on the growth of E. coli (in words)” value in assay [1] was “most powerful inhibitors”. Also, the “OD readings reduced compared with the untreated control” value in assay [1] is listed as 92%. For the same compound, the “Optical density (690 nm)” value is 0.000 in assay [1] (0 min); −0.001 in assay [1] (30 min); −0.001 in assay [1] (60 min); 0.000 in assay [1] (90 min); 0.000 in assay [1] (120 min); 0.002 in assay [1] (150 min). For the same compound, the “Optical density (690 nm)” value was 0.006 in assay [1] (180 min), 0.014 in assay [1] (210 min) and 0.032 in assay [1] (240 min). Also, the Fluorescent signal is 0 in assay [2] (0 min); 174 in assay [2] (30 min); 702 in assay [2] (60 min); 1297 in assay [2] (90 min); 2035 in assay [2] (120 min); 2905 in assay [2] (150 min). Further, the results for the Fluorescent signal in assay [2] (180 min), in assay [2] (210 min) and in assay [2] (240 min) were 3946, 5005 and 6668, respectively. Also, in assay [2], the “Extent of reduction of the substrate (in words)” value is given as “least reduced”.
